Earlier results on 1 molecule are cited in patent publication US20090023700A1, “NEUROPROTECTIVE TREATMENTS” (University of Louisville Research Foundation, priority 2007, published 2009).

This data set deals with AP1. To be noted: macrophages; cited from earlier work.

As to `O=C(O)c1ccccn1.OO.OO.[K+].[K+].[O]=[V]` [bpV(pic), potassium bisperoxo(pyridine-2-carboxylato)oxovanadate(V)], the AP1 activation entry was “does not”.
